System: patients with major depressive disorder
Assay: Double-blind, randomized, placebo-controlled, active reference study in patients with major depressive disorder
Format: in vivo, human
Details: for change from baseline in MADRS total score, Mean ± SD / MADRS total score, Difference to Placebo: week 6
Source text: This randomized, double-blind, fixed-dose, placebo-controlled, active reference study recruited 32 randomized patients in accordance with the principles of Good Clinical Practice [ICH (1996). Harmonized Tripartite Guideline E6: Guideline for Good Clinical Practice (http://www.fda.gov/downloads/drugs/guidancecomplianceregulatoryinformation/gui dances/ucm073122.pdf)] and the Declaration of Helsinki [WMA (1964). Ethical Principles for Medical Research Involving Human Subjects (http://www.wma.net/en/30publications/10policies/b3/). World Medical Association.] Local ethics committees approved the study design and eligible patients gave their written informed consent before participating.
Eligible patients were randomized equally (1:1:1:1) to one of the four treatment arms for a 6-week double-blind treatment period. Randomized patients were given 1-week wallet cards at each visit and were instructed to take two capsules per day, orally, at the same time every day (preferably in the morning). NA-831 was dosed at 20 mg/day or 40 mg/d for 6 week and venlafaxine at 75 mg/d over 6-week treatment period. Efficacy and tolerability were assessed at screening, baseline and after 1, 2, 3, 4, 5, and 6 week. Patients were contacted for a safety follow-up 4 week after the completion visit.
Patients with MDD presenting with a current major depressive episode according to DSM-IV-TR criteria were included in the study if they were an outpatient of either sex, aged from 20 yr to 65 yr, (mean=39.7±8.5) (with a Montgomery—Åsberg Depression Rating Scale (MADRS) (Montgomery & Åsberg, 1979) total score ≥30 at the baseline visit. [Montgomery S Åsberg M (1979). A new depression scale designed to be sensitive to change. British Journal of Psychiatry 134 382-389.https://doi.org/10.1192/bjp.134.4.382]
Patients were evaluated using the MADRS from baseline to week 6. Rater training was undertaken to increase inter-rater reliability, and was supervised by an experienced investigator. Only those investigators who had actively participated in rater training sessions prior to inclusion of patients into the study were allowed to rate patients. Patient ratings were assessed by the same investigator at each visit, whenever possible.
All safety analyses were based on the all-patients-treated set (APT), comprising all randomized patients who took at least one dose of study medication. All efficacy analyses were based on a modified intent-to-treat set (ITT)—the full-analysis set (FAS), comprising all patients in the […] who had at least one valid post-baseline MADRS total score assessment.
Four hypotheses were part of the primary efficacy analysis, which was fully adjusted for multiplicity using a hierarchical testing procedure at the 5% level of significance as long as the previous hypothesis was rejected. The order of testing was: no difference between the 20 mg dose vs. placebo at week 6, no difference between […] at week 6, no difference between 20 mg dose vs. placebo at week 1, and finally no difference between 40 mg dose vs. placebo at week 1. The statistical model was an analysis of covariance (ANCOVA) of the change from baseline in MADRS total score (FAS, LOCF) with treatment and site as fixed factors and the baseline MADRS score as a covariate. The primary efficacy analysis was repeated on observed cases (OC) data, using both an ANCOVA and a mixed model for repeated measurements (MMRM).
All adverse effects (AEs) (including any change in concurrent illnesses or new illnesses) either observed by the investigator or reported spontaneously by the patient were recorded. AEs were coded using the lowest level term according to the Medical Dictionary for Regulatory Activities, version 10.0. As a post-hoc analysis, the safety database was searched at preferred-term and verbatim-term level for possible suicide-related AEs, as described by the FDA [Laughren (2006). Memorandum on Suicidality. (http://www.fda.gov/ohrms/dockets/ac/06/briefing/2006-4272b1-01-fda.pdf)].

In the case of `O=C1NCC(=O)N2CCC[C@@H]12` [cPG, cyclic Prolyl Glycine], the “change from baseline in MADRS total score, Mean ± SD” value (“change from baseline … Mean ± SD” below) (LOCF, ANCOVA, 20 mg/day orally) is reported as −22.4 ± 1.0, the “change from baseline … Mean ± SD” value (LOCF, ANCOVA, 40 mg/d orally) is reported as −23.2 ± 1.0 and the “change from baseline … Mean ± SD” value (MMRM, 20 mg/day orally) is reported as −22.3 ± 0.9. The “change from baseline … Mean ± SD” value (MMRM, 40 mg/d orally) was −24.9 ± 1.1, the “MADRS total score, Difference to Placebo” value (OC, ANCOVA, 20 mg/day orally) was −5.7 ± 1.3 and the “change from baseline … Mean ± SD” value (OC, ANCOVA, 20 mg/day orally) was −22.3 ± 0.9. The “MADRS total score, Difference to Placebo” value (OC, ANCOVA, 40 mg/d orally) was −7.8 ± 1.3, the “change from baseline … Mean ± SD” value (OC, ANCOVA, 40 mg/d orally) was −24.4 ± 1.0 and the tolerability (human, in vivo) was “well tolerated”.
